This note sets out measurements from US20260315431A1, “NANOMATERIAL ENCAPSULATED BIOFILM INHIBITORS FOR DENTAL CARIES TREATMENT” (THE UAB RESEARCH FOUNDATION, priority 2023, published 2026).

Structures are written as SMILES. Converted amounts (≈) assume the structure as drawn. “Also recorded” adds a separate entry of the source.

For series [1], the system named is S. gordonii DL1. Description: Commensal biofilm inhibition, S. gordonii DL1 (crystal violet, OD562). Type of series: cell-based, Streptococcus gordonii. As to conditions: for S. gordonii biofilm: 25 μM. The protocol: (§1) The bacterial strains, S. mutans UA159, S. gordonii DL1, and S. sanguinis SK36 were inoculated statically at 37° C. under 5% CO2 in Todd Hewitt Broth (THB) for 24 h. The cultures were then diluted with fresh THB (1:5) and reinoculated until optical density at 470 nm (OD470) reached 1. The optical density was read using BioTek 800TS microplate reader at 470 nm for bacterial growth and 562 nm for biofilm stained with crystal violet. Data was plotted in Graphpad Prism9.
Biofilm inhibition assays. Biofilm inhibition assays were performed in polystyrene microtiter 96 well plates. Stock solutions were prepared in chemically defined medium (CDM, JRH Biosciences, Lenexa, KS) with 2% sucrose, 1% bacteria cultures and various concentrations of the small molecule inhibitors to examine their activity against biofilm formation as described^69, 70. These stocks were assayed in 96 well plates in triplicate and incubated at 37° C. and 5% CO2 for 16 h. After reading optical density for bacterial growth, the plate was gently washed with water, dried, and stained with crystal violet, and then gently rinsed again with deionized water leaving the stained biofilm at the bottoms of the wells. Biofilms was dissolved in 200 μL of 30% acetic acid and absorbance at 562 nm was used read to determine biofilm biomass. Each assay was carried out at least in triplicate. Biofilm inhibitory concentration (IC50) of the compounds was determined by serial dilutions.
All bacterial strains (S. mutans UA159, S. gordonii DL1, and S. sanguinis SK36) were inoculated statically at 37° C. under 5% CO2 environment in Todd Hewitt Broth (THB) for 24 h^[61]. […] The optical density was read using BioTek 800 TS absorbance reader at 470 nm for bacterial growth and 562 nm for biofilm stained with crystal violet. […]
Biofilm inhibition assays were performed in polystyrene microtiter 96-well plates. […] After reading optical density for bacterial growth, the plate was washed, dried, and stained with 0.1% crystal violet which was again rinsed well with deionized water leaving the stained biofilm at the bottoms of the wells. […]

A short description of series [2]: Solubility in water containing 1% DMSO (UV spectroscopy). The format is physicochemical. The following applies: organic solvent or mixture; water containing 1% DMSO. The method, then: Solubility of MA1-6 and HA2-6 were determined as reported^46 (Table 1).
General considerations. ^1H-NMR and ^13C-NMR spectra were recorded on Bruker Avance Neo 400 and Avance II 700 spectrometers using TMS or appropriate solvent signals as internal standard. The chemical shift values are given in parts per million (ppm) relative to the internal standard used and the coupling constants (J) are given in hertz (Hz). High resolution mass spectra (HRMS) were recorded using Waters AutoSpec-Ultima™ NT magnetic sector mass spectrometer with Electron Impact (EI) Ionization source. The mass analyzer is an electric-magnetic-electric (EBE) sector (a double focusing sector). Anhydrous solvents used for reactions were purchased in Sure-Seal™ bottles from Aldrich chemical company. Other chemical reagents were purchased from Aldrich or Fisher chemical companies and used as received. Reactions were monitored with thin layer chromatography (TLC), which was done on silica gel plates with fluorescent indicator (Silicycle, silica gel, UV254, 25 μm plates). The TLC spots were observed under UV light with the wavelengths 254 nm and 365 nm. The reaction mixtures were purified by column chromatography using Si gel (32-63 μm) from Dynamic Absorbent, Inc. Melting points were determined on a Mel-Temp II melting point apparatus and are uncorrected. All tested compounds have ≥95% purity as determined by HPLC. HPLC traces were obtained using Shimadzu SPD-M20A. Solubility of compounds were determined by UV-spectroscopy method using Agilent Cary 60 UV-Vis spectrophotometer. HPLC analysis of the final compounds were conducted using Kinetex 5 μm C18 100 Å, LC Column 150×4.6 mm, compound=3 mM, 20 μL injection, solvent: mobile phase buffer, Conditions: 60% MeCN/40% H2O/0.1% Formic acid (isocratic), HPLC method 0-10 min, Signals were analyzed using a 254 nm UV detector. A chromatogram of Mobile Phase Buffer (20 μL) was obtained for comparison.

For series [3], the system named is S. gordonii DL1. Put plainly: Planktonic growth, S. gordonii DL1 (OD470). The format is cell-based, Streptococcus gordonii. The method, then: as §1
(§2) S. mutans, S. gordonii, and S. sanguinis growth assays. Effects of compounds on S. mutans and commensal bacterial growth were evaluated using the growth assay as described^69. S. mutans UA159, S. gordonii DL1, S. sanguinis SK36, cultures were grown for 24 h under 5% CO2 at 37° C. These cultures were then reinoculated with fresh THB (1:5) until OD470=1 when the bacteria were ready to be used. Different concentrations of the inhibitor were assayed in chemically defined media (CDM) with 1% of the bacteria, 1% sucrose and 1% DMSO in 96 well plates. The 96 well plates were incubated under 5% CO2 at 37° C. for 16 h. Growth of the bacteria was read after 16 h at OD470. Each assay was carried out at least in triplicate.
All bacterial strains (S. mutans UA159, S. gordonii DL1, and S. sanguinis SK36) were inoculated statically at 37° C. under 5% CO2 environment in Todd Hewitt Broth (THB) for 24 h^[61]. The cultures were then diluted with fresh THB (1:5) and reinoculated until the optical density at 470 nm reaches 1. The optical density was read using BioTek 800 TS absorbance reader at 470 nm for bacterial growth and 562 nm for biofilm stained with crystal violet. Data was plotted in Prism 10.0.2.
as §2, with “Effects” for “S. mutans, S. gordonii, and S. sanguinis growth assays. Effects”, “PEHA5, PEHA6, HA5 or HA6” for “compounds”, “described^[62].” for “described^69.”, “PEHA5, PEHA6, HA5 or HA6” for “inhibitor”, “CDM” for “chemically defined media (CDM)”

`O=C1/C(=C/c2cc(O)c(O)cc2O)Oc2ccccc21` [HA5, 2-[(2′,4′,5′-Trihydroxyphenyl)methylidene]-2,3-dihydro-1-benzofuran-3-one]: the “S. gordonii biofilm” value in the series on S. gordonii DL1 [1] was “minimal”. For the same compound, the inhibition at 25 µM in the series on S. gordonii DL1 [1] (Streptococcus gordonii, DL1) is about 20%. The solubility in series [2] amounted to 120 µg/mL (≈ 444 µM). Moreover, the “planktonic growth of S. gordonii” value in the series with S. gordonii DL1 [3] (25 μM) is listed as “did not affect the planktonic growth”. In addition, the “growth of S. gordonii” value in the series on S. gordonii DL1 [3] (50 μM and 100 μM (100 μM)) is given as “did not inhibit the growth; also recorded: does not inhibit the growth”; with S. gordonii DL1 [3] (at biofilm inhibiting doses), “without affecting the growth”. In addition, the “dose without growth inhibition of commensals (100 μM) relative to biofilm IC50” value in the series with S. gordonii DL1 [3] (DL1) is 14 fold.
As for `O=C1/C(=C/c2cc(O)c(O)c(O)c2)Oc2ccccc21` [HA6, 2-[(3′,4′,5′-Trihydroxyphenyl)methylidene]-2,3-dihydro-1-benzofuran-3-one], the “S. gordonii biofilm” value with S. gordonii DL1 [1] is “did not significantly reduce the biofilms”. In series [2], the solubility is 90.8 µg/mL (≈ 336 µM). The “growth inhibition of S. gordonii” value in the series on S. gordonii DL1 [3] (25 μM and 50 μM) is “about 10%”. In addition, the “growth of S. gordonii” value in the series with S. gordonii DL1 [3] (at biofilm inhibiting doses) is “without affecting the growth”.
